# Laboratory results reported in patent US6958318B2, “Recombinant bacterial cells for delivery of PNP to tumor cells” (The UAB Research Foundation, priority 1993, dated 2005).
# Values joined by “and” are separate entries in the source; they are usually repeats but may differ in a detail not shown here. Identical values can stand only once. “Also recorded” adds a separate entry of the source.
# How the values were obtained:
# D54 glioma tumors = assay: D54 tumors of mixed wild-type and transduced cells (80 to 20); details: in vivo
# E. coli PNP = E. coli PNP (Escherichia coli, UniProt P0ABP8)
# Mel-1 cells = assay: Wild type melanoma cell viability; type: cell-based, human; details: concentrations as high as 50 μg/ml, five days
# HEp-2 cells = assay: Toxicity to HEp-2 cells; type: cell-based
# 16/C-PNP cells = assay: 16/C-PNP tumors in athymic nude mice
# B16 melanoma cells = assay: Bystander killing, mixed wild type and PNP-transduced B16 cells; type: cell-based, murine; details: 20 μg/ml
# Mel-1 melanoma cells = assay: Killing of Mel-1 cells transfected with Tyr-PNP or SV-PNP; type: cell-based, human; details: 30 μg/ml, day 6
# Excerpt: To eliminate possible toxicity associated with the non-hydrolyzable cationic lipid component of the LipofectinJ, an alternative liposome transfection vehicle was used in the killing experiments. A liposome vehicle consisting of a 1:1 (weight/weight) mixture of the cationic lipid DOTAP (1,2-dioleoyloxy-3-(trimethylammonium)-propane) and the neutral lipid DOPE (dioleoyl-phosphatidylethanolamine) (Avanti Polar Lipids) display transfection properties similar to LipofectinJ, but with less toxicity (data not shown). DOTAP/DOPE liposomes were prepared by mixing 0.5 mg of DOTAP and 0.5 mg of DOPE and evaporating the chloroform solvent. Following the addition of 500 μl of cyclohexane, the mixture was placed on dry ice and lyophilized. One ml of sterile water was added to the powdered lipids and the solution was vortexed every 5 minutes for 30 minutes. T-84 or Mel-1 cells were seeded at 30% confluency in 24-well plates and allowed to grow overnight. […]
# In cells that received the PNP or control plasmids, the media was changed two days after transfection and MeP-dR (6-methylpurine-deoxyriboside) added to the appropriate wells to a final concentration of 30 μg/ml. […] Two days later (day 6), the cells were washed once with PBS, resuspended, and counted in a 20% solution of trypan blue reagent (Trypan Blue Stain 0.4%, Gibco-BRL, Gaithersburg, Md.) using a hemacytometer. […]
# [1] = tested on: T-84 colon carcinoma cells; assay: Toxicity of MeP and MeP-dR in untransfected T-84 cells; type: cell-based, human; details: 5 days
# Description: T-84 colon carcinoma cells were grown in Dulbecco's modified Eagle medium containing F12 nutrient medium (DMEM/F12) (GIBCO/BRL, Gaithersburg, Md.) in 6 well trays to a density of approximately […] (−20% confluency).
# Untransfected T-84 colon carcinoma cells were treated with increasing concentrations of either MeP-dR or MeP. After 5 days the cells were removed from each well and the number of dye excluding cells were determined with the aid of a hemacytometer. Cells were studied both at passage 48 (p. 48) and passage 61 (p. 61). MeP was obtained from Sigma Chemical Company (St. Louis, Mo.). MeP-dR was synthesized by standard methods as described (J. A. Montgomery and K. Howson, J. Med. Chem., 11:48-52 (1968)). The nucleoside and base were dissolved in serum free DMEM/F12 at a concentration of 1 mg/ml and added directly to 1 ml DMEM/F12 with 10% fetal bovine serum at the concentrations described below in order to cover 1-2×10^5 cells/well.
# Initial cytopathic effects due to MeP were observed within 24 hours (for example, rounding of cells, with some cells detaching from plate). Viable cells were counted 5 days following addition of drug. […] Trypan blue exclusion was used to confirm viability in cells retaining recognizable structure at all concentrations studied. […] If the toxicity of MeP-dR is due to very low levels of liberation of MeP by human PNP, then combination with selective inhibitors of human PNP could prevent this toxicity.
# 16/C breast cancer cells = assay: Bystander killing, mixed wild type and PNP-transduced 16/C cells; type: cell-based, murine; details: 20 μg/ml
# [2] = Systemically administered dose response (toxicity) in mice; type: in vivo
# Description: The formula of Freireich et al., Cancer Chemother. Rep., 50:219-244, (1966) can be used to determine the maximum tolerated dose of substrate for a human subject. […] This amount or slightly less should result in maximal effectiveness of tumor cell killing in humans without killing the subject. This standard of effectiveness is accepted in the field of cancer therapy. However, more preferred is a range of from about 10% to 1% of the maximum tolerated dosage (for example, 7.5 mg/m^2-0.75 mg/m^2). Furthermore, it is understood that modes of administration that permit the substrate to remain localized at or near the site of the tumor will be effective at lower doses than systemically administered substrates.
# Sequence of E. coli PNP (P0ABP8 2-239): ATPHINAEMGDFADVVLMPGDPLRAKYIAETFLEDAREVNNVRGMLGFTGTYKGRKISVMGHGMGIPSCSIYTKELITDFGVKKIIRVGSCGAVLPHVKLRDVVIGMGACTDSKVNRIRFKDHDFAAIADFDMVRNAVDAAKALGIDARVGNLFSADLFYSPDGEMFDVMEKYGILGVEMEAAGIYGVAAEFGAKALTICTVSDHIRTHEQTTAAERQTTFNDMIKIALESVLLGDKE
structure (smiles),measurement,setting,value
"Cc1ncnc2c1ncn2[C@H]1C[C@H](O)[C@@H](CO)O1 [MeP-dR, 9-(β-D-2-deoxyerythropentofuranosyl)-6-methylpurine]",Activity against tumors of wild-type and transduced cells at 80 to 20,D54 glioma tumors,less active
same,Km,E. coli PNP,68 µM and 107 µM
same,Effect on Mel-1 cells,Mel-1 cells,unaffected
same,Fold less toxic than 6-methylpurine (MeP),HEp-2 cells,20 fold
same,"Tumor detection, early treatment group",16/C-PNP cells; 100 mg/kg IP days 1-4,none of the mice had any detectable tumor up to 18 days post engraftment
same,"Deaths, early treatment group","16/C-PNP cells; 100 mg/kg IP days 1-4, n=4",two more died at day 20
same,"Survival, late treatment group","16/C-PNP cells; 100 mg/kg IP days 13, 14, 15",All of these animals survived for the complete experiment
same,"Tumor size, late treatment group","16/C-PNP cells; 100 mg/kg IP days 13, 14, 15",did not increase in size after day 15
same,Antitumor effect of MeP-dR on PNP-transduced 16/C tumors,16/C-PNP cells; days 13-15 or days 1-4,substantial antitumor effects
same,Toxicity to untransduced B16 cells,B16 melanoma cells,not toxic
same,Cell proliferation when as few as 2% of cells express E. coli PNP,B16 melanoma cells; mixed culture,completely eliminated cell proliferation; also recorded: Complete abrogation of cellular proliferation
same,Share of cells expressing PNP required for total population cell killing,B16 melanoma cells; LDH release assay,10%
same,Killing of Mel-1 cells transfected with SV-PNP,Mel-1 melanoma cells,susceptible to killing
same,Killing of Mel-1 cells transfected with Tyr-PNP,Mel-1 melanoma cells,susceptible to killing
same,Toxicity to cells that were not transfected,[1]; 160 μM,minimally toxic
same,Cells killed,[1]; 200 and 400 μM,less than half of the cells were killed
same,Cell death,[1]; lower concentrations,did not cause any appreciable cell death
same,Toxicity to untransduced 16/C cells,16/C breast cancer cells,not toxic
same,Cell proliferation when as few as 2% of cells express E. coli PNP,16/C breast cancer cells; mixed culture,completely eliminated cell proliferation; also recorded: Complete abrogation of cellular proliferation
same,Share of cells expressing PNP required for total population cell killing,16/C breast cancer cells; LDH release assay,1%
same,Toxicity in mice,[2]; 25 mg per kg per day for 9 days,some toxicity but no lethality
same,Human dosage (maximum tolerated dose) by formula of Freireich,[2]; 25 mg/kg×3,75 mg/m^2
